Experimental data from patent US20240293558A1, “KRAS INHIBITOR CONJUGATES” (Erasca, Inc., priority 2021, published 2024).
Like-named read-outs stand apart in the source and are kept apart here.

What was measured:
KRAS (WT) = target: T1, KRAS (WT) (Homo sapiens, UniProt P01116); assay: In-vitro RAS-RAF binding assay (RRB), HTRF/FRET; assay type: biochemical; settings: read-out: Inhibition of RAS-RAF Binding (in-vitro) KRAS (WT) IC50
T1 construct: Biotinylated KRAS protein amino acids 1-169 (produced at Erasca); made in house
T1 sequence (P01116 1-169 isoform P01116-2): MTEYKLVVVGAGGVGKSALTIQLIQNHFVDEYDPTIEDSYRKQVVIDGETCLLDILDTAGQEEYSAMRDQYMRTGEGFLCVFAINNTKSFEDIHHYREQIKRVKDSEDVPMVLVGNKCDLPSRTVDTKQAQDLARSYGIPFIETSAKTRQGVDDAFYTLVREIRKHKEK
In short: (§1)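 Biotinylated KRAS 1-169 (streptavidin-terbium donor, 30 nM) and GST-cRAF RBD (anti-GST d2 acceptor, 30 nM) in HEPES pH 7.5, NaCl, MgCl2, DTT buffer. After compound incubation, SOS1 catalytic domain plus GTPgS drive 60 min nucleotide exchange. HTRF FRET read at equilibrium, in duplicate.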

[1] = target: T2, KRas G12D fused to HiBiT peptide (Homo sapiens, UniProt P01116, G12D); assay: ASPC-1 HiBit assay to determine G12D degradation; assay type: cell-based; settings: AsPC-1 HiBiT cells, 24-hour incubation; read-out: ASPC-1 HiBit DC50 (C)
T2 construct: endogenous in cells; host or cells: AsPC-1 HiBiT knock-in single clone (Cas9 RNP + ssODN)
T2 sequence (P01116 1-188 isoform P01116-2 G12D): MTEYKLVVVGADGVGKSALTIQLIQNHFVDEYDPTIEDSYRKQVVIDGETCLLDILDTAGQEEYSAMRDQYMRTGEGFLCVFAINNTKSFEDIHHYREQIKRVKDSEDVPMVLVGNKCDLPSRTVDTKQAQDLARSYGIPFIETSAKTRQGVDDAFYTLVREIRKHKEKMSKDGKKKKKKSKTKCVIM
Protocol: Compounds presented herein induce degradation of the KRas G12D (KRasG12D) upon treatment of engineered cancer cell line.
The degradation of the KRasG12D in cellular environment was measured using engineered homozygous KRasG12D AsPC-1 cell line in which KRas G12D was fused to luminescent HiBiT peptide at the N-terminal. The small (1.3 kDa) HiBiT peptide complements with high affinity to a larger (18 kDa) subunit evolved from NanoLuc (termed LgBiT). The resulting complex (i.e., reconstituted luciferase enzyme) generates bright luminescence that translates to high sensitivity (1 amol), broad dynamic range (four orders of magnitude), and rapid kinetics for real time quantitation.
To generate HiBit KRasG12D knock-in cell line, sgRNA (SEQ. ID NO: 1) and ssODN (SEQ. ID NO: 2) were designed and synthesized at GenScript.
RNP complex was generated by mixing of 100 pmol of Cas9 protein to PCR tubes containing 300 pmol sgRNA incubating the resultant complex at room temperature for 20 min. […] ssODN was added to RNP complex slowly and RNP-ssODN complex was incubated at room temperature for 10 min. RNP-ssODN complex was mixed with […] of AsPC-1 cells (1×10^6 cells total) and electroporated using Nucleofactor (Program CM-150). Cells were then incubated at ambient temperature for 5 min and transferred to a six-well plate containing 2 ml growth medium.
To select pools with the highest luminescence signal, 10^4 cells of parental AsPC-1 and transfected pools were plated in solid white 384-well tissue culture plates. 24 hours after seeding, HiBiT was detected using the Nano-Glo HiBiT Lytic Detection System (Promega) following manufacturer's instructions. Briefly, […] of Nano-Glo HiBiT Lytic Detection Reagent was added directly to the cells and mixed by inversion before recording luminescence on an Envision (Perkin-Elmer) with 0.5 s integration time.
Single clones were isolated from stable pool by limited dilution method and presence of HiBiT knock-in was verified by TA cloning and subsequent sequencing. Additionally, western blotting analysis was conducted to confirm selection of single clones with high luminescence signal.
For DC50S measurements, AsPC-1 HiBiT single clone cells were grown in RPMI 1640 medium (Invitrogen 22400-089) supplemented with 10% fetal bovine serum. Cells were seeded in 384-well tissue culture plates at a density of 7,000 cells/well and allowed to attach for 24 hours.
Test compounds were distributed directly into assay plate with the adjustment for DMSO concentration using Tecan HP D300e. For most of the experiments, the final concentration of compounds starts from 10 μM, 3-fold dilution dose response and 10 doses. […] DMSO final concentration is 1%. Each concentration of exemplary compound was tested as singleton. The negative control wells were cells with DMSO only, and the positive control wells were cells with […] inhibitor.
Following 24-hour incubation with the compounds plate and Nano-Glo® HiBiT Lytic reagents were equilibrated to room temperature. 20 μL of HiBiT Lytic reagent were added to each well. The assay plate was incubated on digital microplate shaker (350 rpm) for 20 min followed by centrifugation at 500 g for 1 min. Luminescence was recorded using Envision (Perkin-Elmer) using aperture 384-L1 with 0.1 s integration time.
HiBiT signal are used to calculate the % degradation at given compound concentration using the following formula:
% Degradation=(1−(Sample HiBiT signal−Ave Min signal)/(Ave Max signal−Ave Min signal))*100%
For DC50 calculation, the data with the hook effect were removed first and DC50S was reported using a 4-parameter fit of dose response curve using GraphPad in those cases where maximum % degradation was >50% and Minimal % degradation was <50%. The decrease in DC50 reflects that the exemplary compound led to a higher level of degradation of KRasG12D than another exemplary compound at specific timepoint of treatment of cancer cell line. […]

KRAS G12D = KRAS G12D (Homo sapiens, UniProt P01116, G12D); assay: In-vitro RAS-RAF binding assay (RRB), HTRF/FRET; assay type: biochemical; set-up: Biotinylated KRAS protein amino acids 1-169 (produced at Erasca); made in house; settings: read-out: Inhibition of RAS-RAF Binding (in-vitro) KRAS (G12D) IC50
KRAS G12D, sequence (P01116 1-169 isoform P01116-2 G12D): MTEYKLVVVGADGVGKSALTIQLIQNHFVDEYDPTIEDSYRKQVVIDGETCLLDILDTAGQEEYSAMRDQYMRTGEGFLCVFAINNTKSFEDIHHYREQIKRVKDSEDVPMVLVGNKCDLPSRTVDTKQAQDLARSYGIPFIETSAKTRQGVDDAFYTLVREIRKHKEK
In short: as §1

[2] = Table 2, average of multiple runs of each compound

Row | SMILES | IC50 (KRAS (WT); Table 1) [nM] | IC50 (KRAS (WT); [2]) [nM] | DC50 [1] [nM] | IC50 (KRAS G12D; Table 1) [nM] | IC50 (KRAS G12D; [2]) [nM]
1 | C[C@H](NC(=O)[C@@H]1C[C@@H](O)CN1C(=O)[C@@H](NC(=O)CCOCCCN1CCCC1COc1nc(N2CC3CCC(C2)N3)c2cc(Cl)c(-c3ccc(F)c4sc(N)c(C#N)c34)c(F)c2n1)C(C)(C)C)c1ccc(-c2c(F)cccc2F)cc1 (stereo partly drawn) [Example 12, (2S,4R)-1-[(2S)-2-[3-[3-[2-[[7-(2-amino-3-cyano-7-fluoro-benzothiophen-4-yl)-6-chloro-4-(3,8-diazabicyclo[3.2.1]octan-3-yl)-8-fluoro-quinazolin-2-yl]oxymethyl]pyrrolidin-1-yl]propoxy]propanoylamino]-3,3-dimethyl-butanoyl]-N-[(1S)-1-[4-(2,6-difluorophenyl)phenyl]ethyl]-4-hydroxy-pyrrolidine-2-carboxamide] | 86.8 | 86.8 | 77.5 | 11.3 | 11.2
2 | C#Cc1c(F)ccc2cc(O)cc(-c3ncc4c(N5CC6CCC(C5)N6)nc(OC[C@@H]5CCCN5CCCOCCC(=O)N[C@H](C(=O)N5C[C@H](O)C[C@H]5C(=O)N[C@@H](C)c5ccc(-c6scnc6C)cc5)C(C)(C)C)nc4c3F)c12 [Example 13, (2S,4R)-1-[(2S)-2-[3-[3-[(2S)-2-[[4-(3,8-diazabicyclo[3.2.1]octan-3-yl)-7-(8-ethynyl-7-fluoro-3-hydroxy-1-naphthyl)-8-fluoro-pyrido[4,3-d]pyrimidin-2-yl]oxymethyl]pyrrolidin-1-yl]propoxy]propanoylamino]-3,3-dimethyl-butanoyl]-4-hydroxy-N-[(1S)-1-[4-(4-methylthiazol-5-yl)phenyl]ethyl]pyrrolidine-2-carboxamide] | 49 | 49.1 | 444 | 13.6 | 13.6
3 | C#Cc1c(F)ccc2cc(O)cc(-c3ncc4c(N5CC6CCC(C5)N6)nc(OC[C@@H]5CCCN5CCCOCCC(=O)N[C@H](C(=O)N5C[C@H](O)C[C@H]5C(=O)N[C@@H](C)c5ccc(-c6c(F)cccc6F)cc5)C(C)(C)C)nc4c3F)c12 [Example 14, (2S,4R)-1-[(2S)-2-[3-[3-[(2S)-2-[[4-(3,8-diazabicyclo[3.2.1]octan-3-yl)-7-(8-ethynyl-7-fluoro-3-hydroxy-1-naphthyl)-8-fluoro-pyrido[4,3-d]pyrimidin-2-yl]oxymethyl]pyrrolidin-1-yl]propoxy]propanoylamino]-3,3-dimethyl-butanoyl]-N-[(1S)-1-[4-(2,6-difluorophenyl)phenyl]ethyl]-4-hydroxy-pyrrolidine-2-carboxamide] | 41.9 | 41.9 | 331 | 9.4 | 9.4
4 | C#Cc1c(F)ccc2cc(O)cc(-c3ncc4c(N5CC6CCC(C5)N6)nc(OCCN5CCC(COc6cc([C@H](C(=O)N7C[C@H](O)C[C@H]7C(=O)N[C@@H](C)c7ccc(-c8c(F)cccc8F)cc7)C(C)C)on6)CC5)nc4c3F)c12 [Example 15, (2S,4R)-1-((2R)-2-(3-((1-(2-((4-(3,8-diazabicyclo[3.2.1]octan-3-yl)-7-(8-ethynyl-7-fluoro-3-hydroxynaphthalen-1-yl)-8-fluoropyrido[4,3-d]pyrimidin-2-yl)oxy)ethyl)piperidin-4-yl)methoxy)isoxazol-5-yl)-3-methylbutanoyl)-N—((S)-1-(2′,6′-difluoro-[1,1′-biphenyl]-4-yl)ethyl)-4-hydroxypyrrolidine-2-carboxamide] | – | 1320 | 112 | – | 12.7
5 | C#Cc1c(F)ccc2cc(O)cc(-c3ncc4c(N5CC6CCC(C5)N6)nc(OCCN5CCC6(CC5)CN(c5cc([C@H](C(=O)N7C[C@H](O)C[C@H]7C(=O)N[C@@H](C)c7ccc(-c8c(F)cccc8F)cc7)C(C)C)on5)C6)nc4c3F)c12 [Example 16, (2S,4R)-1-[(2R)-2-[3-[7-[2-[4-(3,8-diazabicyclo[3.2.1]octan-3-yl)-7-(8-ethynyl-7-fluoro-3-hydroxy-1-naphthyl)-8-fluoro-pyrido[4,3-d]pyrimidin-2-yl]oxyethyl]-2,7-diazaspiro[3.5]nonan-2-yl]isoxazol-5-yl]-3-methyl-butanoyl]-N-[(1S)-1-[4-(2,6-difluorophenyl)phenyl]ethyl]-4-hydroxy-pyrrolidine-2-carboxamide] | – | 940 | 69.7 | – | 9.79
6 | CC(C)[C@@H](C(=O)N1C[C@H](O)C[C@H]1C(=O)N[C@@H](C)c1ccc(-c2c(F)cccc2F)cc1)c1cc(OCC2CCN(CCOc3nc(N4CC5CCC(C4)N5)c4cc(Cl)c(-c5ccc(F)c6sc(N)c(C#N)c56)c(F)c4n3)CC2)no1 [Example 17, (2S,4R)-1-((2R)-2-(3-((1-(2-((7-(2-amino-3-cyano-7-fluorobenzo[b]thiophen-4-yl)-4-(3,8-diazabicyclo[3.2.1]octan-3-yl)-6-chloro-8-fluoroquinazolin-2-yl)oxy)ethyl)piperidin-4-yl)methoxy)isoxazol-5-yl)-3-methylbutanoyl)-N—((S)-1-(2′,6′-difluoro-[1,1′-biphenyl]-4-yl)ethyl)-4-hydroxypyrrolidine-2-carboxamide] | – | 2830 | 244 | – | 15.6
7 | CC(C)[C@@H](C(=O)N1C[C@H](O)C[C@H]1C(=O)N[C@@H](C)c1ccc(-c2c(F)cccc2F)cc1)c1cc(OCC2CCN(CCOc3nc(N4CC5CCC(C4)N5)c4cc(C(F)(F)F)c(-c5ccc(F)c6sc(N)c(C#N)c56)c(F)c4n3)CC2)no1 [Example 18, (2S,4R)-1-((2R)-2-(3-((1-(2-((7-(2-amino-3-cyano-7-fluorobenzo[b]thiophen-4-yl)-4-(3,8-diazabicyclo[3.2.1]octan-3-yl)-8-fluoro-6-(trifluoromethyl)quinazolin-2-yl)oxy)ethyl)piperidin-4-yl)methoxy)isoxazol-5-yl)-3-methylbutanoyl)-N—((S)-1-(2′,6′-difluoro-[1,1′-biphenyl]-4-yl)ethyl)-4-hydroxypyrrolidine-2-carboxamide] | – | 3140 | 247 | – | 24.9
8 | C[C@H](NC(=O)[C@@H]1C[C@@H](O)CN1C(=O)[C@@H](NC(=O)CCOCCCN1CCCC1COc1nc(N2CC3CCC(C2)N3)c2cc(Cl)c(-c3ccc(F)c4sc(N)c(C#N)c34)c(F)c2n1)C(C)(C)C)c1ccc(-c2c(F)cccc2F)cc1 (stereo partly drawn) [Example 19, (2S,4R)-1-((2S)-2-(3-(3-((2S)-2-((((7R)-7-(2-amino-3-cyano-7-fluorobenzo[b]thiophen-4-yl)-4-(3,8-diazabicyclo[3.2.1]octan-3-yl)-6-chloro-8-fluoroquinazolin-2-yl)oxy)methyl)pyrrolidin-1-yl)propoxy)propanamido)-3,3-dimethylbutanoyl)-N—((S)-1-(2′,6′-difluoro-[1,1′-biphenyl]-4-yl)ethyl)-4-hydroxypyrrolidine-2-carboxamide] | – | 77.7 | 63.2 | – | 7.67
